The text below walks through data of PubChem BioAssay (NCI).

The structures appear in SMILES notation.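 Assay format: 96-well plates, 48-hour exposure. GI50: concentration for 50% inhibition of growth. Definition used: TGI = concentration required for complete inhibition of growth.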

Some test systems named below: A549 NSCLC; HCT-116 colon; HOP-92 NSCLC; KM12 colon; OVCAR-4 ovarian; OVCAR-5 ovarian; SK-MEL-5 melanoma; SNB-19 CNS; UACC-257 melanoma; UO-31 renal.
Test in all cases: NCI tumour cell line growth inhibition, 48 h

`CCN(CC)c1ccc(C(=O)c2ccc(N(CC)CC)cc2)cc1`: the GI50 is 0.607 µM in the assay on A549 NSCLC; 0.453 µM in the assay on HCT-116 colon; 0.776 µM with HOP-92 NSCLC; 0.349 µM with KM12 colon; 2.14 µM in the assay on OVCAR-4 ovarian; 4.1 µM with OVCAR-5 ovarian. The GI50 with SK-MEL-5 melanoma is 0.384 µM; with SNB-19 CNS, 2.47 µM; in the assay on UACC-257 melanoma, 0.461 µM; with UO-31 renal it was 0.68 µM. In addition, the TGI is more than 58.1 µM in the assay on A549 NSCLC; 13.6 µM in the assay on HCT-116 colon; 10.9 µM in the assay with HOP-92 NSCLC; 8.89 µM in the assay with KM12 colon; more than 100 µM in the assay on OVCAR-4 ovarian; more than 100 µM in the assay with OVCAR-5 ovarian. Further, the TGI is 12.7 µM in the assay with SK-MEL-5 melanoma, more than 100 µM in the assay on SNB-19 CNS, more than 59.2 µM in the assay with UACC-257 melanoma and 64.2 µM with UO-31 renal.

Consider `CC1OC(n2cc(F)c(=O)[nH]c2=O)C=CC1=O` (stereo not given), for which the TGI in the assay with A549 NSCLC is more than 100 µM; in the assay on HCT-116 colon, 29.8 µM; with HOP-92 NSCLC, 33.2 µM; with KM12 colon, 31.5 µM; in the assay on OVCAR-4 ovarian it was 33.6 µM; with OVCAR-5 ovarian, 30 µM. Moreover, the TGI in the assay on SK-MEL-5 melanoma is 31.4 µM; with SNB-19 CNS, 34.8 µM; with UACC-257 melanoma, 32.2 µM; in the assay with UO-31 renal it was 30.3 µM.

Turning to `Cc1cnc(C(=O)NNc2nc3sc4c(c3c(=O)n2C)C(C)CCC4)cn1` (stereo not given), the GI50 with A549 NSCLC was 0.371 µM; with HCT-116 colon, 0.26 µM; with HOP-92 NSCLC, 0.724 µM; in the assay on KM12 colon, 0.362 µM; in the assay with OVCAR-4 ovarian, 0.163 µM; in the assay on OVCAR-5 ovarian, 0.491 µM. The GI50 in the assay with SK-MEL-5 melanoma is 0.363 µM; in the assay with SNB-19 CNS it was 0.425 µM; in the assay with UACC-257 melanoma, 0.353 µM; in the assay on UO-31 renal, 0.322 µM. Besides, the TGI in the assay on A549 NSCLC turned out to be 4.69 µM; with HCT-116 colon, 7.06 µM; in the assay with HOP-92 NSCLC, 4.57 µM; in the assay with KM12 colon, 2.16 µM; in the assay on OVCAR-4 ovarian it was 2.09 µM; in the assay with OVCAR-5 ovarian, 7.4 µM. Besides, the TGI with SK-MEL-5 melanoma was determined as 1.72 µM; in the assay on SNB-19 CNS, 5.45 µM; with UACC-257 melanoma it was 4.34 µM; in the assay with UO-31 renal, 1.86 µM.

On to `O=C1C(=Cc2c(O)cc(O)cc2O)C(=O)c2ccccc21`, for which the TGI is more than 100 µM in the assay on A549 NSCLC; more than 53.7 µM in the assay on HCT-116 colon; more than 58 µM with HOP-92 NSCLC; more than 51.4 µM in the assay with KM12 colon; more than 72.7 µM with OVCAR-4 ovarian; more than 57.7 µM in the assay on OVCAR-5 ovarian. In addition, the TGI was more than 100 µM with SK-MEL-5 melanoma, more than 56.9 µM in the assay on SNB-19 CNS, more than 58.1 µM in the assay with UACC-257 melanoma and more than 100 µM in the assay on UO-31 renal.

For `CCN1CCC(O)(c2ccc(Cl)cc2)C(C(=O)c2ccc(Cl)cc2)C1` (stereo not given), the TGI in the assay with A549 NSCLC, in the assay on HCT-116 colon, in the assay with HOP-92 NSCLC, with KM12 colon, with OVCAR-4 ovarian and in the assay on OVCAR-5 ovarian was more than 100 µM throughout. Besides, the TGI in the assay on SK-MEL-5 melanoma, in the assay on SNB-19 CNS, in the assay on UACC-257 melanoma and with UO-31 renal was more than 100 µM each time.

On to `O=C(c1ccccc1)c1cn(/N=C\c2ccccc2)c(=O)nc1-c1ccccc1`, for which the TGI in the assay on A549 NSCLC, in the assay with HCT-116 colon, with HOP-92 NSCLC, in the assay with KM12 colon, in the assay with OVCAR-4 ovarian and with OVCAR-5 ovarian was more than 100 µM each time. For the same molecule, the TGI in the assay with SK-MEL-5 melanoma, with SNB-19 CNS, in the assay on UACC-257 melanoma and in the assay on UO-31 renal was more than 100 µM throughout.

Consider `CCOc1ccc2nc(NC(=O)C(=O)C(c3cnc4ccccc4n3)[N+](=O)[O-])sc2c1` (stereo not given), for which the TGI in the assay with A549 NSCLC, in the assay with HCT-116 colon, with HOP-92 NSCLC, in the assay on KM12 colon, in the assay on OVCAR-4 ovarian and in the assay with OVCAR-5 ovarian was more than 100 µM each time. Also, the TGI in the assay with SK-MEL-5 melanoma, in the assay with SNB-19 CNS, in the assay with UACC-257 melanoma and with UO-31 renal was more than 100 µM each time.

On to `NC(N)=NS(=O)(=O)c1ccc(Nc2c3ccccc3nc3c(C(=O)Nc4ccc(S(N)(=O)=O)cc4)cccc23)cc1`, for which the TGI in the assay with A549 NSCLC, in the assay with HCT-116 colon, in the assay with HOP-92 NSCLC, in the assay with KM12 colon, with OVCAR-4 ovarian and with OVCAR-5 ovarian was more than 100 µM each time. Besides, the TGI in the assay with SK-MEL-5 melanoma, in the assay on SNB-19 CNS, in the assay with UACC-257 melanoma and in the assay on UO-31 renal was more than 100 µM throughout.

With `CCCSS[C@H]1NC(=O)[C@H]1NC(=O)COc1ccccc1`, the TGI was 67.3 µM with A549 NSCLC; 22 µM with HCT-116 colon; 24.4 µM in the assay with HOP-92 NSCLC; 31.6 µM in the assay on KM12 colon; 31.9 µM in the assay with OVCAR-4 ovarian; more than 100 µM in the assay with OVCAR-5 ovarian. The TGI in the assay on SK-MEL-5 melanoma is 54.9 µM; with SNB-19 CNS, more than 100 µM; with UACC-257 melanoma, 27.8 µM; in the assay on UO-31 renal it was more than 100 µM.

As for `Cn1cc(-c2ccc(-c3ccc(C4=NC5(CC5)C(=O)N4C[C@@H]4CCN(C(=O)C5CC5)C4)cc3)cc2)cn1`, the GI50 was 12.5 µM in the assay with A549 NSCLC; 11.7 µM in the assay with HCT-116 colon; 23.6 µM in the assay with HOP-92 NSCLC; 5.39 µM in the assay with KM12 colon; 5.74 µM in the assay with OVCAR-4 ovarian; 38.6 µM with OVCAR-5 ovarian. Besides, the GI50 with SK-MEL-5 melanoma is 2.46 µM; in the assay on SNB-19 CNS, 21.8 µM; in the assay with UACC-257 melanoma, 39.3 µM; with UO-31 renal, 1.47 µM. For the same molecule, the TGI is 39.3 µM in the assay on A549 NSCLC; more than 100 µM in the assay with HCT-116 colon; more than 100 µM in the assay with HOP-92 NSCLC; 32.1 µM with KM12 colon; more than 100 µM in the assay with OVCAR-4 ovarian; more than 100 µM in the assay with OVCAR-5 ovarian. The TGI with SK-MEL-5 melanoma was 15.2 µM; in the assay with SNB-19 CNS it was more than 100 µM; in the assay on UACC-257 melanoma it was more than 100 µM; in the assay on UO-31 renal it was more than 100 µM.
